One data set has as its target T1, 5-HT2CR (Rattus norvegicus, UniProt P08909).
T1 construct: from tissue; host or cells: frontal cortex of male Sprague-Dawley rats
T1 sequence (P08909 33-460): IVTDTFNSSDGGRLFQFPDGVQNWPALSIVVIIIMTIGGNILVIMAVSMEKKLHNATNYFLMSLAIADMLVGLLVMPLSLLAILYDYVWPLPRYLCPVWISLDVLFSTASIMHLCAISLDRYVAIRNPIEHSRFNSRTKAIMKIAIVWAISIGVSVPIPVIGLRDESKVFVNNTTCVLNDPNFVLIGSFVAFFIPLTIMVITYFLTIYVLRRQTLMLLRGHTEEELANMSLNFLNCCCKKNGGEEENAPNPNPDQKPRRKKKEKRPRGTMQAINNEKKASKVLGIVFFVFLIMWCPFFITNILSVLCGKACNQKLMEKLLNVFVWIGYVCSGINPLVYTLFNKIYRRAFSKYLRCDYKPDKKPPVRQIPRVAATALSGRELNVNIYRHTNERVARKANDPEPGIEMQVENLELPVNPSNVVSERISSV
Put plainly: Radioligand binding at 5-HT2C on rat frontal cortex membranes. Particulars: for selectivity 5-HT2/5-HT1A: Antilog [pKi (5-HT1AR) – pKi (5-HT2CR)]; for Ki: rat frontal cortex membranes, [3H]mesulergine, read-out: 5-HT2C pKi ± SEM (converted). As to the method:
Male Sprague–Dawley rats were decapitated and their brains removed and placed on ice. The hippocampi (for the functional 5-HT1A receptor assay) or frontal cortexes (for the competitive 5-HT2A and 5-HT2C receptor assays) were dissected and homogenized with a glass homogenizer in 30 vol. ice-cold TED buffer (50 mMTris-HCl, 1 mM EDTA, 1 mM dithiotheritol, pH 7.4). Next, the homogenate was centrifuged at 21 000g for 30 min at 4 °C. The pellet was suspended in 30 vol TED buffer (pH 7.4) and incubated in a water bath for 10 min at 37 °C to remove endogenous ligands. The suspension was centrifuged again at 21 000g for 30 min at 4 °C. The pellet was resuspended in 30 vol TED buffer (pH 7.4) and the centrifugation step was repeated. The final pellet was suspended in 10 vol 50 mM Tris-HCl (pH 7.4) and stored at −80 °C until use.[47]
The 5-HT2A assay was performed according to a previously described protocol with some modifications.[48] […] Nonspecific binding was determined in the presence of 10 μM mianserin. For the 5-HT2C assay, the frontal cortex homogenates (250 μg protein/mL) were incubated in triplicate with 1 nM [^3H]mesulergine for 60 min at 36 °C in a 50 mM Tris-HCl (pH 7.4) buffer containing 0.1% ascorbate, 10 mM MgCl2, 10 μM pargyline, 100 nM spiperone, and increasing concentrations (10^–10–10^–5 M) of the compound tested. After incubation, the reaction mixture was deposited onto UniFilter-96 GF/B plates, with the aid of a FilterMate-96 Harvester. The filter plates were presoaked with 0.4% PEI for 1 h. Next, each filter well was washed with 1.75 mL of 50 mM Tris-HCl (pH 7.4) and left to dry on a heating block set to 50 °C for 2 h. Then, 45 μL of Microscint-20 scintillation fluid was added to each filter well and left to equilibrate overnight. The filter-bound radioactivity was counted in a MicroBeta^2 Microplate Counter. Curves were fitted with a one-site sigmoidal dose–response equation and pKi for each compound was calculated with the Cheng-Pursoff equation. Results were analyzed with one-way ANOVA followed by the Bonferroni’s posthoc test. The results are expressed as means ± SEM of three independent experiments.

The next data set relates to Hep-G2 cells. Nature of the data set: Hep-G2 cell viability (MTT assay). Type of data set: cell-based. Particulars: 72 h; for hepatic cell viability vs untreated control cells: 50 μM; for hepatic cell viability (toxicity): concentrations ≤10 μM. How it is done: HEK293 cells with stable expression of human 5-HT1A, 5-HT6, and 5-HT7b (prepared with the use of Lipofectamine 2000) were grown in Dulbecco’s Modified Eagle Medium (DMEM) containing 10% dialyzed fetal bovine serum (FBS) and 500 μg/mL G418 sulfate. Liver hepatocellular carcinoma Hep-G2 cells were cultured in DMEM enriched by 10% FBS, 2 mM L-glutamine, 100 IU/mL penicillin, and 50 μg/mL streptomycin (all from Sigma-Aldrich Corporation, a division of Merck KGaA, Darmstadt, Germany). Cell lines were maintained at 37 °C in a humidified atmosphere with 5% CO2. For membrane preparation, the cells were subcultured in 150 cm^2 flasks, grown to 90% confluence, washed twice with prewarmed to 37 °C phosphate buffered saline (PBS), and pelleted by centrifugation (200g) in PBS containing 0.1 mM EDTA and 1 mM dithiothreitol. Prior to membrane preparation, pellets were stored at −80 °C.
Liver hepatocellular carcinoma Hep-G2 cells were seeded in 96-well plates (1 × 10^4 cells/well) and maintained under continuous stimulation with increasing concentrations (nM−μM range) of the tested compounds. 200 mM ethanol and 5% Triton X-100 (Sigma-Aldrich Corporation) served as controls. The viability of cells was assessed by MTT assay as previously described.[66],[67] The absorbance was detected by a Victor3 plate reader (PerkinElmer Inc., Waltham, MA, USA) and represented by box and whiskers plot, as a measure of cell viability. Differences between values from treated and untreated cells were evaluated by two-ANOVA followed by Dunnett’s multiple comparison test (p < 0.05).
(In general: Tetrazolium assays rely on reduction of a dye to a coloured formazan, in cell work by metabolically active cells.)

For the compound `c1ccc(C2(c3ccccc3)OCC(CNCCOc3ccccc3-c3ccncc3)O2)cc1` (racemic) [rac-1, N-[(2,2-diphenyl-1,3-dioxolan-4-yl)methyl]-2-[2-(pyridin-4-yl)phenoxy]ethan-1-ammonium hydrogenoxalate], at 5-HT2CR, the “selectivity 5-HT2/5-HT1A” value was found to be 40 and the Ki was 363 nM.

Regarding `Cn1cncc1-c1ccccc1OCCNCC1COC(c2ccccc2)(c2ccccc2)O1` (racemic) [rac-2, N-((2,2-diphenyl-1,3-dioxolan-4-yl)methyl)-2-(2-(1-methyl-1H-imidazol-5-yl)phenoxy)ethan-1-ammonium hydrogenoxalate], at 5-HT2CR, the “selectivity 5-HT2/5-HT1A” value is recorded as 45 and the Ki is 331 nM.

Regarding `c1ccc(C2(c3ccccc3)OC[C@@H](CNCCOc3ccccc3-c3ccncc3)O2)cc1` [(R)-1, N-[(2,2-Diphenyl-1,3-dioxolan-4-yl)methyl]-2-[2-(pyridin-4-yl)phenoxy]ethan-1-ammonium hydrogenoxalate], in the data set with Hep-G2 cells, the “hepatic cell viability vs untreated control cells” value is listed as “negatively impacted cell viability” and the “hepatic cell viability (toxicity)” value is reported as “very low toxicity”. Besides, at 5-HT2CR, the “selectivity 5-HT2/5-HT1A” value was found to be 204 and the Ki is 912 nM.

With `Cn1cncc1-c1ccccc1OCCNC[C@@H]1COC(c2ccccc2)(c2ccccc2)O1` [(R)-2, N-((2,2-Diphenyl-1,3-dioxolan-4-yl)methyl)-2-(2-(1-methyl-1H-imidazol-5-yl)phenoxy)ethan-1-ammonium hydrogenoxalate], in the data set with Hep-G2 cells, the “hepatic cell viability vs untreated control cells” value is “negatively impacted cell viability” and the “hepatic cell viability (toxicity)” value is given as “very low toxicity”. At 5-HT2CR, the “selectivity 5-HT2/5-HT1A” value was found to be 105 and the Ki was 1260 nM.

On to `c1ccc(C2(c3ccccc3)OC[C@H](CNCCOc3ccccc3-c3ccncc3)O2)cc1` [(S)-1, N-[(2,2-Diphenyl-1,3-dioxolan-4-yl)methyl]-2-[2-(pyridin-4-yl)phenoxy]ethan-1-ammonium hydrogenoxalate], for which, in the data set with Hep-G2 cells, the “hepatic cell viability vs untreated control cells” value is “no effect” and the “hepatic cell viability (toxicity)” value is listed as “very low toxicity”. Besides, at 5-HT2CR, the “selectivity 5-HT2/5-HT1A” value came to 102 and the Ki was 955 nM.

As for `Cn1cncc1-c1ccccc1OCCNC[C@H]1COC(c2ccccc2)(c2ccccc2)O1` [(S)-2, N-((2,2-Diphenyl-1,3-dioxolan-4-yl)methyl)-2-(2-(1-methyl-1H-imidazol-5-yl)phenoxy)ethan-1-ammonium hydrogenoxalate], the “hepatic cell viability vs untreated control cells” value in the data set on Hep-G2 cells is on record as “negatively impacted cell viability”. In addition, the hepatic cell viability entry in the data set with Hep-G2 cells (10 and 5 μM) is “decreased cell viability”. Also, on 5-HT2CR, the “selectivity 5-HT2/5-HT1A” value stood at 78 and the Ki was 316 nM.

For the origin of these results see paper PMC8016166, “Identification of a Potent and Selective 5-HT1A Receptor Agonist with In Vitro and In Vivo Antinociceptive Activity” (ACS Chemical Neuroscience, 2020).
